According to patent US10919885B2, “Compounds and uses thereof” (Yumanity Therapeutics, Inc., priority 2018, dated 2021):
Where a name gives a salt, the structure may show the parent alone.

How the values were obtained:
human SCD5 = human SCD5 (Homo sapiens (Human), UniProt Q86SK9); assay: Yeast growth assay, strain expressing human SCD5 as the sole desaturase (reduced growth as surrogate for SCD inhibition); format: cell-based; settings: yeast with OLE1 deleted expressing human SCD5 from a plasmid; growth read as OD600 after 40 h at 30° C.; top drug concentration 33.3 μM
Sequence of human SCD5 (Q86SK9 whole entry): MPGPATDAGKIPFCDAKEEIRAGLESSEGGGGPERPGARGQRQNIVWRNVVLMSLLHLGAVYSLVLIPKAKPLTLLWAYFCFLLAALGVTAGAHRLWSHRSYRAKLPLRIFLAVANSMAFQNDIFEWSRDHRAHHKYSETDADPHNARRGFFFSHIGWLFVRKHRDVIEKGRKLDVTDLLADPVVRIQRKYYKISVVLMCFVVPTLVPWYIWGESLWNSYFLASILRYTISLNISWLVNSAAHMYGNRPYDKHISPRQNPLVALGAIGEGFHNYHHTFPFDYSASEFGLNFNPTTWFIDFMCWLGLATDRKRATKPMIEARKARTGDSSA
Summary of the method: (§1)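 Yeast lacking OLE1 depend on plasmid-borne human SCD1 or SCD5 and are tested in SD-Ura medium without oleic/palmitoleic acid or Tween.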

human SCD1 = human SCD1 (Homo sapiens (Human), UniProt O00767); assay: Yeast growth assay, strain expressing human SCD1 as the sole desaturase (reduced growth as surrogate for SCD inhibition); format: cell-based; settings: yeast with OLE1 deleted expressing human SCD1 from a plasmid; growth read as OD600 after 40 h at 30° C.; top drug concentration 33.3 μM
Sequence of human SCD1 (O00767 whole entry): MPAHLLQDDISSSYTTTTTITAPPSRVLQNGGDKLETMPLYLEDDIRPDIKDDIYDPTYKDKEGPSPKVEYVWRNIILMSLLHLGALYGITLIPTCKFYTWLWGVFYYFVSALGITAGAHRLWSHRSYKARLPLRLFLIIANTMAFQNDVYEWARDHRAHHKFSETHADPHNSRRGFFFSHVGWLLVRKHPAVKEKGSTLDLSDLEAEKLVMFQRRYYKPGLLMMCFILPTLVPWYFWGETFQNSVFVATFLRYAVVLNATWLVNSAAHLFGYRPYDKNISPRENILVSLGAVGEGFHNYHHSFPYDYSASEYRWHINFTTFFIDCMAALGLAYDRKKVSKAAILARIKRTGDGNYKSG
Summary of the method: as §1

Row | Structure (SMILES) | IC50 (human SCD5) [µM] | IC50 (human SCD1) [µM]
1 | O=C(c1cc(-c2ccccn2)on1)N1CC(c2ccccc2)C1 [Compound 233, (3-phenylazetidin-1-yl)(5-(pyridin-2-yl)isoxazol-3-yl)methanone] | 3.12 | 2.61
2 | O=C(c1cc(-c2cccnc2)on1)N1CC(c2ccccc2)C1 [Compound 234, (3-phenylazetidin-1-yl)(5-(pyridin-3-yl)isoxazol-3-yl)methanone, trifluoroacetic acid] | 5.08 | 15.5
3 | Cn1cc2ccc(-c3cc(C(=O)N4CC(c5ccccc5)C4)no3)cc2n1 [Compound 235, (5-(2-methyl-2H-indazol-6-yl)isoxazol-3-yl)(3-phenylazetidin-1-yl)methanone] | 5.16 | > 45
4 | COc1ccc(-c2cc(C(=O)N3CC(c4cccc(F)c4)C3)no2)cc1OC [Compound 236] | 1.55 | 3.33
5 | O=C(Nc1ccccc1)C1CN(C(=O)c2cc(-c3ccccc3)on2)C1 [Compound 237] | > 45 | > 45
6 | CC1(C(=O)Nc2ccccc2)CN(C(=O)c2cc(-c3ccccc3)on2)C1 [Compound 238] | > 45 | > 45
7 | O=C(c1cc(-c2ccc3c(c2)OCO3)on1)N1CC(c2cccc(F)c2)C1 [Compound 239, (5-(benzo[d][1,3]dioxol-5-yl)isoxazol-3-yl)(3-(3-fluorophenyl)azetidin-1-yl)methanone] | 1.92 | 0.866
8 | O=C(NC1CN(C(=O)c2cc(-c3ccccc3)on2)C1)c1ccccc1 [Compound 240] | > 45 | > 45
9 | COc1ccc(-c2cc(C(=O)N3CC(c4ccccc4)C3)no2)nc1 [Compound 242, (5-(5-methoxypyridin-2-yl)isoxazol-3-yl)(3-phenylazetidin-1-yl)methanone] | 0.305 | 0.264
10 | O=C(c1cc(-c2ccc(F)cn2)on1)N1CC(c2ccccc2)C1 [Compound 243, (5-(5-fluoropyridin-2-yl)isoxazol-3-yl)(3-phenylazetidin-1-yl)methanone] | 1.5 | 1.6
11 | O=C(c1cc(-c2ccco2)on1)N1CC(F)C1 [Compound 244] | > 45 | > 45
12 | O=C(c1cc(-c2ccco2)on1)N1CC2(CCCC2)C1 [Compound 245] | > 45 | > 45
13 | O=C(c1cc(-c2ccco2)on1)N1CC2(COC2)C1 [Compound 247] | > 45 | > 45
14 | CC(C)c1cc(C(=O)N2CC(c3ccccc3)C2)no1 [Compound 250] | > 45 | > 45
15 | O=C(c1noc2c1CCCC2)N1CC(c2ccccc2)C1 [Compound 252, 3-(3-phenylazetidine-1-carbonyl)-4,5,6,7-tetrahydro-1,2-benzoxazole] | 7.5 | > 45
16 | O=C(c1noc2c1CCCC2)N1CC(Cc2ccccc2)C1 [Compound 253, 3-(3-benzylazetidine-1-carbonyl)-4,5,6,7-tetrahydro-1,2-benzoxazole] | 13 | > 45
17 | COc1ccc(-c2cc(C(=O)N3CC(c4ccccc4)C3)no2)nn1 [Compound 255, (5-(6-methoxypyridazin-3-yl)isoxazol-3-yl)(3-phenylazetidin-1-yl)methanone] | 1.8 | 23
18 | O=C(c1cc(-c2ccncn2)on1)N1CC(c2ccccc2)C1 [Compound 257, (3-phenylazetidin-1-yl)(5-(pyrimidin-4-yl)isoxazol-3-yl)methanone] | 3.14 | 0.321
19 | O=C(c1cc(-c2ccncn2)on1)N1CC(Cc2ccccc2)C1 [Compound 258, (3-benzylazetidin-1-yl)(5-(pyrimidin-4-yl)isoxazol-3-yl)methanone] | 1 | 2.5
20 | O=C(c1cc(-c2cnccn2)on1)N1CC(c2ccccc2)C1 [Compound 259, (3-phenylazetidin-1-yl)(5-(pyrazin-2-yl)isoxazol-3-yl)methanone] | 5 | > 45
21 | O=C(c1cc(-c2ccc3c(c2)OCO3)on1)N1CCc2ccccc2C1 [Compound 260] | > 45 | > 45
22 | O=C(c1cc(-c2ccc3c(c2)OCO3)on1)N1CCCc2ccccc21 [Compound 261] | > 45 | > 45
23 | O=C(c1cc(-c2ccc3c(c2)OCO3)on1)N1CCCc2c(F)cccc21 [Compound 263] | > 45 | > 45
24 | O=C(c1cc(-c2ccc3c(c2)OCO3)on1)N1CCn2ccnc2C1 [Compound 269] | > 45 | > 45
25 | COc1cccc(N2CCN(C(=O)c3cc(-c4ccc5c(c4)OCO5)on3)CC2)c1 [Compound 271, (5-(benzo[d][1,3]dioxol-5-yl)isoxazol-3-yl)(4-(3-methoxyphenyl)piperazin-1-yl)methanone] | 4.71 | > 45
26 | O=C(c1cc(-c2ccc3c(c2)OCO3)on1)N1CCCC1c1ccc(F)cn1 (centres unmarked) [Compound 272] | > 45 | > 45

Row | Structure (SMILES) | IC50 (human SCD5) [µM] | IC50 (human SCD1) [µM]
27 | Cc1nn(C)c2cc(-c3cc(CN4C(=O)OCC4c4ccccc4)no3)ccc12 (centres unmarked) [Compound 273] | 39.2 | > 45
28 | O=C(c1cc(-c2ccc3c(c2)OCO3)on1)N1CCC(c2ccccc2)CC1 [Compound 275, [5-(1,3-benzodioxol-5-yl)isoxazol-3-yl]-(4-phenyl-1-piperidyl)methanone] | 1.13 | > 45
29 | O=C(c1ccncc1)N1CCN(C(=O)c2cc(-c3ccc4c(c3)OCO4)on2)CC1 [Compound 276] | > 45 | > 45
30 | Cc1nn(C)c2cc(-c3cc(C(=O)N4CCN(c5ccccc5)CC4)no3)ccc12 [Compound 278] | > 45 | > 45
31 | O=C(c1cc(-c2ccc3c(c2)OCO3)on1)N1CCN(c2ccc(F)cc2)CC1 [Compound 279] | > 45 | > 45
32 | O=C(c1ccccc1)N1CCN(C(=O)c2cc(-c3ccc4c(c3)OCO4)on2)CC1 [Compound 281] | > 45 | > 45
33 | O=C(c1cc(-c2ccc3c(c2)OCO3)on1)N1CCN(c2cccc(F)c2)CC1 [Compound 282] | > 45 | > 45
34 | O=C(c1cc(-c2ccccc2)on1)N1CCN(c2ccc(F)cc2)CC1 [Compound 283] | > 45 | > 45
35 | O=C(c1cc(-c2ccccc2)on1)N1CCN(c2ccccc2F)CC1 [Compound 284] | > 45 | > 45
36 | O=C(NC1CCN(Cc2ccccc2)CC1)c1cc(-c2ccco2)on1 [Compound 285] | > 45 | > 45
37 | O=C(NC1CCN(c2ccccc2)CC1)c1cc(-c2ccco2)on1 [Compound 286] | > 45 | > 45
38 | O=C(c1cc(-c2ccccc2)on1)N1CCC(Oc2ccccc2)CC1 [Compound 288, (4-phenoxy-1-piperidyl)-(5-phenylisoxazol-3-yl)methanone] | 4.16 | > 45
39 | CC1(c2ccccc2)CCN(C(=O)c2cc(-c3ccc4c(c3)OCO4)on2)CC1 [Compound 290, 1-[5-(2H-1,3-benzodioxol-5-yl)-1,2-oxazole-3-carbonyl]-4-methyl-4-phenylpiperidine] | 2.94 | > 45
40 | O=C(c1cc(-c2ccc3c(c2)OCO3)on1)N1CCC(c2ccncc2)CC1 [Compound 293] | > 45 | > 45
41 | O=C(c1cc(-c2ccccc2)on1)N1CCN(c2cccc(F)c2)CC1 [Compound 294] | > 45 | 0.21
42 | O=C(c1cc(-c2ccccc2)on1)N1CCC(O)(c2ccccc2)CC1 [Compound 296] | > 45 | > 45
43 | O=C(c1cc(-c2ccccc2)on1)N1CCN(c2cc(F)ccc2Cl)CC1 [Compound 297, (4-(2-chloro-5-fluorophenyl)piperazin-1-yl)(5-phenylisoxazol-3-yl)methanone] | 5.58 | 19
44 | O=C(c1cc(-c2ccc3c(c2)OCO3)on1)N1CCC(Oc2ccccc2)CC1 [Compound 298, [5-(1,3-benzodioxol-5-yl)isoxazol-3-yl]-(4-phenoxy-1-piperidyl)methanone] | 2.92 | 6.22
45 | O=C(c1cc(-c2ccc3c(c2)OCO3)on1)N1CCN(c2cc(F)ccc2Cl)CC1 [Compound 299, [5-(1,3-benzodioxol-5-yl)isoxazol-3-yl]-[4-(2-chloro-5-fluoro-phenyl)piperazin-1-yl]methanone] | 8.68 | > 45
46 | CNC(=O)c1ccccc1-c1cc(C(=O)N2CCC(c3ccccc3)CC2)no1 [Compound 301, N-methyl-2-[3-(4-phenylpiperidine-1-carbonyl)isoxazol-5-yl]benzamide] | 6.58 | > 45
47 | CNC(=O)c1cccc(-c2cc(C(=O)N3CCC(c4ccccc4)CC3)no2)c1 [Compound 303] | > 45 | > 45
48 | O=C(Nc1cnnc(Oc2ccccc2)c1)c1cc(-c2ccccc2)on1 [Compound 311] | > 45 | > 45
49 | O=C(Nc1ccnc(Oc2ccccc2)c1)c1cc(-c2ccccc2)on1 [Compound 312] | > 45 | > 45
50 | O=C(c1cc(-c2ccncc2)on1)N1CCC(c2ccccc2)CC1 [Compound 313, (4-phenylpiperidin-1-yl)(5-(pyridin-4-yl)isoxazol-3-yl)methanone, trifluoroacetic acid] | 1.54 | 0.41
51 | O=C(c1cc(-c2ccccc2)on1)N1CCC(c2ccccc2)CC1 [Compound 314, (5-phenylisoxazol-3-yl)(4-phenylpiperidin-1-yl)methanone] | 1.63 | > 45
52 | O=C(c1cc(-c2cccnc2)on1)N1CCC(c2ccccc2)CC1 [Compound 315, (4-phenylpiperidin-1-yl)(5-(pyridin-3-yl)isoxazol-3-yl)methanone, trifluoroacetic acid salt] | 1.06 | 3.84
